Numbered stars: 1 amine (or outer) side, 2 acyl side, 3 side chain; on linkers, the order of the positions; unused ones are H or OH. Bridge positions count the residues as written; N and C are the ends. Square brackets hold non-standard residues; d marks the D form. Peptide text beside a SMILES is read from it. I, II: the chains in the order shown. Actinocin(9to1) = Cc1c2oc3c(C)ccc(C(=O)[*:1])c3nc-2c(C(=O)[*:2])c(N)c1=O; NMeV = CN[C@H](C(=O)O)C(C)C; Sar = CNCC(=O)O
What was measured:
[1] = system: Human colonic cancer cells HCT 116; test: Viable count (Trypan Blue) and morphology of HCT 116 cells; type: cell-based; conditions: Example 28; for cell morphology (characteristics of apoptosis) / change in cell count / viable count versus incubation time curve (FIG. 29): 0.5 mg/ml, autoclaved; for change in cell count / viable count versus incubation time curve (FIG. 29): 1 to 4 days; for effects of inducing apoptosis, filter-treated samples: 5 mg/ml solutions in PBS treated with a filter
Method: Then the suspension was pipetted into a 24-well plate (mfd. by FALCON) at a ratio of 1.8 ml/well. […] As a control, PBS alone was added in the same amount and incubation was effected in the same manner. 1, 2, 3 and 4 days after the initiation of the incubation, the viable cells were counted in accordance with the method described in “Soshiki Baiyo no Gijutsu” (second ed.), Asakura Shuppan, ed. by Nippon Soshiki Baiyo Gakkai, 26-28 (1990), namely, by the Trypan Blue staining method on a counting chamber.
In this figure, the abscissa refers to the incubation time (day) while the ordinate refers to the viable count (×10^4 cells /2 ml) in the culture medium. In FIG. 29, the open circle stands for the control (no addition), the solid circle stands for the sulfated-fucose-containing polysaccharide preparation obtained in Example 1 and the solid square stands for the sulfated-fucose-containing polysaccharide mixture obtained in Example 1.
Then the suspension was pipetted into a 24-well plate (mfd. by FALCON) at a ratio of 1.8 ml/well. […] As a control, PBS alone was added in the same amount and incubation was effected in the same manner. After the initiation of the incubation, the viable cells were counted with the passage of time in accordance with the method described in “Soshiki Baiyo no Gijutsu” (second ed.), Asakura Shuppan, ed. by Nippon Soshiki Baiyo Gakkai, 26-28 (1990), namely, by the Trypan Blue staining method on a counting chamber.

[2] = system: Human acute lymphatic leukemia cells MOLT-3; test: Viable count (Trypan Blue) of MOLT-3 cells; type: cell-based; conditions: Example 24
Method: Then the suspension was pipetted into a 24-well plate (mfd. by FALCON) at a ratio of 1.8 ml/well. […] As a control, PBS alone was added in the same amount and incubation was effected in the same manner. 2, 4, 6 and 8 days after the initiation of the incubation, the cells were counted by the Trypan Blue staining method.
In this figure, the abscissa refers to the incubation time (day) while the ordinate refers to the viable count (×10^4 cells /2 ml) in the culture medium. In FIG. 28, the open circle stands for the control (no addition), the solid circle stands for the sulfated-fucose-containing polysaccharide-F obtained in Example 12, the open square stands for the sulfated-fucose-containing polysaccharide obtained in Example 1, the open triangle stands for that obtained in Example 17 and the solid square stands for that obtained in Example 15.

[3] = system: Human premyelocytic leukemia cells HL-60; test: Viable count (Trypan Blue) and microscopic morphology of HL-60 cells; type: cell-based; conditions: Example 25; 10 μg/ml solution of actinomycin D; 20 hours
[4] = system: Human acute lymphatic leukemia cells MOLT-3; test: DNA ladder detection by agarose gel electrophoresis in MOLT-3 cells; conditions: Example 23; 10 μg/ml solution of actinomycin D; 20 hours
[5] = system: Human premyelocytic leukemia cells HL-60; test: DNA ladder detection by agarose gel electrophoresis in HL-60 cells

dextran sulfate was tested, and the “cell morphology (characteristics of apoptosis)” value [1] was “showed characteristics of apoptosis such as the shrinkage and fragmentation of the cells”, the “change in cell count” value [1] was “little increase or a decrease in cell count” and the “viable count versus incubation time curve (FIG. 29)” value [1] was “substantially the same curve as the one of the sulfated-fucose-containing polysaccharide preparation of Example 1”. For the same molecule, the “effects of inducing apoptosis, filter-treated samples” value [1] was “the same results were obtained”, the “effects of inducing apoptosis, autoclaved samples” value ([2]; 0.5 mg/ml in PBS, autoclave 121° C. 20 minutes) was “the same results were obtained” and the “apoptosis induction and growth inhibition (viable count, FIG. 28)” value ([2]; 0.2 ml of 0.5 mg/ml solution per 1.8 ml well (text: concentration of 0.5 mg/ml), 2, 4, 6 and 8 days) was “induce the apoptosis of the MOLT-3 cells and considerably inhibit the growth of these cells”. The “viable count versus incubation time curve (FIG. 28)” value ([2]; 2 to 8 days) was “substantially the same curve as the one obtained by using the sulfated-fucose-containing polysaccharide of Example 15”.

`Cc1c2oc3c(C)ccc(C(=O)N[C@@H]4C(=O)N[C@H](C(C)C)C(=O)N5CCC[C@H]5C(=O)N(C)CC(=O)N(C)[C@@H](C(C)C)C(=O)O[C@@H]4C)c3nc-2c(C(=O)N[C@@H]2C(=O)N[C@H](C(C)C)C(=O)N3CCC[C@H]3C(=O)N(C)CC(=O)N(C)[C@@H](C(C)C)C(=O)O[C@@H]2C)c(N)c1=O` [actinomycin D] (I: T[dV]P[Sar][NMeV] / II: T[dV]P[Sar][NMeV]; ester I:1-I:C, II:1-II:C; linker I:N-II:N via Actinocin(9to1)) was tested, and the “cell morphology (shrinkage and fragmentation)” value [3] was “the shrinkage and fragmentation of the cells were observed”, the DNA ladders [4] was “DNA ladders were observed” and the DNA ladders ([5]; Example 20, 10 μg/ml solution of actinomycin D, 20 hours) was “DNA ladders were observed”. The DNA ladders ([5]; Example 35, Actinomycin D as substitute for F-Fd-4) was “DNA ladders were observed”.

For heparin, the “cell morphology (characteristics of apoptosis)” value [1] was “showed characteristics of apoptosis such as the shrinkage and fragmentation of the cells”, the “change in cell count” value [1] was “little increase or a decrease in cell count” and the “viable count versus incubation time curve (FIG. 29)” value [1] was “substantially the same curve as the one of the sulfated-fucose-containing polysaccharide preparation of Example 1”. The “effects of inducing apoptosis, filter-treated samples” value [1] was “the same results were obtained”.

Source: US6593311B2, “Apoptosis inducers” (Takara Shuzo Co., Ltd., priority 1996, dated 2003)
